Assay in all cases: Test D flooded paddy test
Common to all, as to settings: 21 days, scale 0 to 100

For one assay, the system named is late watergrass. Format: in vivo, Echinochloa oryzicola. An excerpt:
(§1) Three plastic pots (ca. 16-cm diameter) per rate were partially filled with sterilized Tama silt loam soil comprising a 35:50:15 ratio of sand, silt and clay and 2.6% organic matter. Separate plantings for each of the three pots were as follows. Seeds from the U.S. of ducksalad (Heteranthera limosa (Sw.) Willd.), smallflower umbrella sedge (Cyperus difformis L.) and purple redstem (Ammannia coccinea Rottb.), were planted into one 16-cm pot for each rate. Seeds from the U.S. of rice flatsedge (Cyperus iria L.), bearded sprangletop (Leptochloa fascicularis (Lam.) Gray), one stand of 9 or 10 water seeded rice seedlings (Oryza sativa L. cv. ‘Japonica—M202’), and one stand of 6 transplanted rice seedlings (Oryza sativa L. cv. ‘Japonica—M202’) were planted into one 16-cm pot for each rate. Seeds from the U.S. of barnyardgrass (Echinochloa crus-galli (L.) Beauv.), late watergrass (Echinochloa oryzicola Vasinger), early watergrass (Echinochloa oryzoides (Ard.) Fritsch) and junglerice (Echinochloa colona (L.) Link) were planted into one 16-cm pot for each rate. Plantings were sequential so that crop and weed species were at the 2.0 to 2.5-leaf stage at time of treatment.
(§2) Potted plants were grown in a greenhouse with day/night temperature settings of 29.5/26.7° C., and supplemental balanced lighting was provided to maintain a 16-hour photoperiod. Test pots were maintained in the greenhouse until test completion.
(§3) At time of treatment, test pots were flooded to 3 cm above the soil surface, treated by application of test compounds directly to the paddy water, and then maintained at that water depth for the duration of the test. Effects of treatments on rice and weeds were visually evaluated by comparison to untreated controls after 21 days. Plant response ratings are reported on a 0 to 100 scale; where 0 is no effect and 100 is complete control. A dash (-) response means no test result.

For the next assay, the system named is ducksalad. Format: in vivo, Heteranthera limosa.
Excerpt: as §1, §2, §3

In another assay the test system is barnyardgrass. Format: in vivo, Echinochloa crus-galli.
Excerpt: as §1, §2, §3

Each structure is given as a SMILES string.

Regarding `CCc1nc(C(C)(C)C)sc1C(=O)Nc1cccc(C(=O)NCC2CC2)n1` [Compound 215], the “Plant response rating, Watergrass, Late” value came out at 0 in the assay with late watergrass (125 g ai/ha); 0 with late watergrass (250 g ai/ha); 20 in the assay on late watergrass (500 g ai/ha); 20 in the assay on late watergrass (750 g ai/ha); 20 with late watergrass (1000 g ai/ha). Also, the “Plant response rating, Ducksalad” value stood at 0 in the assay with ducksalad (125 g ai/ha); 0 in the assay on ducksalad (250 g ai/ha); 20 in the assay on ducksalad (500 g ai/ha); 20 in the assay with ducksalad (750 g ai/ha); 75 in the assay with ducksalad (1000 g ai/ha). In addition, the “Plant response rating, Barnyardgrass” value in the assay with barnyardgrass (125 g ai/ha) is 0; with barnyardgrass (250 g ai/ha) it was 0; with barnyardgrass (500 g ai/ha), 0; with barnyardgrass (750 g ai/ha), 30; with barnyardgrass (1000 g ai/ha) it was 40.

Source of the values: patent publication US20060069132A1, “Azolecarboxamide herbicides” (priority 2004, published 2006).
